Results taken from PubChem BioAssay (NCI).
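Five concentrations, 48 hours, 96-well plates. GI50: concentration for 50% inhibition of growth. TGI: concentration producing complete growth inhibition.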

How the values were obtained:
Assay in all cases: NCI-60 cell line screen, 48 h
MCF7 breast = test system: MCF7 breast
SNB-19 CNS = test system: SNB-19 CNS
RXF 393 renal = test system: RXF 393 renal
SF-268 CNS = test system: SF-268 CNS
CAKI-1 renal = test system: CAKI-1 renal
MDA-MB-231 breast = test system: MDA-MB-231 breast
PC-3 prostate = test system: PC-3 prostate
SK-OV-3 ovarian = test system: SK-OV-3 ovarian
SK-MEL-5 melanoma = test system: SK-MEL-5 melanoma
HOP-62 NSCLC = test system: HOP-62 NSCLC

SMILES: CCOS(=O)(=O)c1ccc(-c2c3nc(c(-c4ccc(S(=O)(=O)OCC)cc4)c4ccc([nH]4)c(-c4ccc(S(=O)(=O)OCC)cc4)c4nc(c(-c5ccc(S(=O)(=O)OCC)cc5)c5ccc2[nH]5)C=C4)C=C3)cc1
- TGI (MCF7 breast): > 31.6 µM
- TGI (SNB-19 CNS): > 31.6 µM
- TGI (RXF 393 renal): > 31.6 µM
- TGI (SF-268 CNS): > 31.6 µM
- TGI (CAKI-1 renal): > 31.6 µM
- TGI (MDA-MB-231 breast): > 31.6 µM
- TGI (PC-3 prostate): > 31.6 µM
- TGI (SK-OV-3 ovarian): > 31.6 µM
- TGI (SK-MEL-5 melanoma): > 31.6 µM

SMILES: COc1ccc(-c2nnc3n(C)c4ccccc4n3c2=O)cc1
- TGI (MCF7 breast): > 100 µM
- TGI (SNB-19 CNS): > 100 µM
- TGI (RXF 393 renal): 82.9 µM
- TGI (SF-268 CNS): > 100 µM
- TGI (CAKI-1 renal): > 100 µM
- TGI (MDA-MB-231 breast): 56.2 µM
- TGI (PC-3 prostate): > 100 µM
- TGI (HOP-62 NSCLC): 37.5 µM
- TGI (SK-MEL-5 melanoma): > 100 µM

SMILES: COc1ccc([C@H]2CC3C(=O)N(c4ccc(OC)cc4)C(=O)C3c3[nH]c4ccccc4c32)cc1 (some centres undefined)
- TGI (SNB-19 CNS): > 100 µM
- TGI (SF-268 CNS): > 100 µM
- TGI (CAKI-1 renal): > 100 µM
- TGI (SK-OV-3 ovarian): > 100 µM
- TGI (HOP-62 NSCLC): > 100 µM
- TGI (SK-MEL-5 melanoma): > 100 µM

SMILES: O=S(=O)(c1ccccc1)c1ccc(-c2nc(-c3ccc4c(c3)Sc3ccccc3S4)cs2)cc1
- TGI (MCF7 breast): > 100 µM
- TGI (SNB-19 CNS): > 100 µM
- TGI (RXF 393 renal): 35.3 µM
- TGI (SF-268 CNS): > 100 µM
- TGI (CAKI-1 renal): > 100 µM
- TGI (MDA-MB-231 breast): > 100 µM
- TGI (PC-3 prostate): > 100 µM
- TGI (SK-OV-3 ovarian): 41.9 µM
- TGI (HOP-62 NSCLC): 45.5 µM

SMILES: COc1ccc(N2C(=O)/C(=C/c3ccc(N(CCC#N)CCC#N)cc3)N=C2c2ccccc2)cc1
- TGI (MCF7 breast): > 100 µM
- TGI (SNB-19 CNS): > 100 µM
- TGI (RXF 393 renal): > 100 µM
- TGI (SF-268 CNS): > 100 µM
- TGI (CAKI-1 renal): > 100 µM
- TGI (MDA-MB-231 breast): > 100 µM
- TGI (PC-3 prostate): > 100 µM
- TGI (SK-OV-3 ovarian): > 100 µM
- TGI (HOP-62 NSCLC): > 100 µM
- TGI (SK-MEL-5 melanoma): > 100 µM

SMILES: CC(=O)[C@@]1(c2ccccc2)CC2(CCN(C)CC2)O[C@H]1C
- TGI (SNB-19 CNS): > 100 µM
- TGI (RXF 393 renal): > 100 µM
- TGI (SF-268 CNS): > 100 µM
- TGI (CAKI-1 renal): > 100 µM
- TGI (MDA-MB-231 breast): > 100 µM
- TGI (SK-OV-3 ovarian): > 100 µM
- TGI (HOP-62 NSCLC): > 100 µM
- TGI (SK-MEL-5 melanoma): > 100 µM

SMILES: O=S(O)c1cc(Cl)c(O)c(Cl)c1
- TGI (SNB-19 CNS): > 100 µM
- TGI (RXF 393 renal): > 100 µM
- TGI (SF-268 CNS): > 100 µM
- TGI (SK-OV-3 ovarian): > 100 µM
- TGI (HOP-62 NSCLC): > 100 µM

SMILES: O=C1CN(c2cccc(C(F)(F)F)c2)C(=O)CN1CCN1CC(=O)N(c2cccc(C(F)(F)F)c2)CC1=O
- TGI (MCF7 breast): > 100 µM
- TGI (SNB-19 CNS): > 100 µM
- TGI (SF-268 CNS): > 100 µM
- TGI (MDA-MB-231 breast): > 100 µM
- TGI (PC-3 prostate): > 100 µM
- TGI (SK-OV-3 ovarian): > 100 µM
- TGI (HOP-62 NSCLC): > 100 µM
- TGI (SK-MEL-5 melanoma): > 100 µM

SMILES: O=C(NC1C/C(=N/O)c2c(Br)sc(Br)c21)C(F)(F)F (centres undefined)
- TGI (MCF7 breast): > 100 µM
- TGI (SNB-19 CNS): > 100 µM
- TGI (RXF 393 renal): > 100 µM
- TGI (SF-268 CNS): > 100 µM
- TGI (CAKI-1 renal): 58 µM
- TGI (MDA-MB-231 breast): 30.9 µM
- TGI (PC-3 prostate): 45.6 µM
- TGI (SK-OV-3 ovarian): > 100 µM
- TGI (SK-MEL-5 melanoma): 54.4 µM

SMILES: Cn1c(=O)c2[nH]c(SC/C(=N/O)c3ccc(Br)cc3)nc2n(C)c1=O
- GI50 (SNB-19 CNS): 2.94 µM
- TGI (SNB-19 CNS): 8.35 µM
- GI50 (RXF 393 renal): 2.05 µM
- TGI (RXF 393 renal): 3.76 µM
- GI50 (MDA-MB-231 breast): 2.14 µM
- TGI (MDA-MB-231 breast): 4.38 µM
- GI50 (PC-3 prostate): > 100 µM
- TGI (PC-3 prostate): > 100 µM
- GI50 (HOP-62 NSCLC): 2.3 µM
- TGI (HOP-62 NSCLC): 5.09 µM

SMILES: C(=N\NC1=NCCN1)/c1ccc2ccccc2c1
- TGI (MCF7 breast): 32.3 µM
- TGI (RXF 393 renal): 34.6 µM
- TGI (SF-268 CNS): 47.6 µM
- TGI (CAKI-1 renal): 28 µM
- TGI (MDA-MB-231 breast): 35.3 µM
- TGI (PC-3 prostate): 28.5 µM
- TGI (SK-OV-3 ovarian): 34.1 µM
- TGI (HOP-62 NSCLC): 31 µM
- TGI (SK-MEL-5 melanoma): 25.9 µM

SMILES: COc1ccc(NC(=O)C(=O)Cc2ccc([N+](=O)[O-])c([N+](=O)[O-])c2CC(=O)C(=O)Nc2ccc(OC)cc2OC)c(OC)c1
- TGI (SNB-19 CNS): > 100 µM
- TGI (RXF 393 renal): > 100 µM
- TGI (SF-268 CNS): > 100 µM
- TGI (CAKI-1 renal): > 100 µM
- TGI (SK-OV-3 ovarian): > 100 µM
- TGI (HOP-62 NSCLC): > 100 µM

SMILES: O=c1c2c3c(sc2nc2n1NC=NN2)CCCC3
- TGI (MCF7 breast): > 54.2 µM
- TGI (SNB-19 CNS): > 71.5 µM
- TGI (RXF 393 renal): > 61.9 µM
- TGI (SF-268 CNS): 34.8 µM
- TGI (CAKI-1 renal): 33.8 µM
- TGI (MDA-MB-231 breast): 19.1 µM
- TGI (PC-3 prostate): > 56.7 µM
- TGI (SK-OV-3 ovarian): > 65.5 µM
- TGI (SK-MEL-5 melanoma): 31.7 µM

SMILES: COC(=O)C1(Cc2ccccc2)Cc2cc3c(cc2C1O)CCC3 (centres undefined)
- TGI (RXF 393 renal): 32.5 µM
- TGI (SF-268 CNS): > 100 µM
- TGI (CAKI-1 renal): 31.3 µM
- TGI (MDA-MB-231 breast): 38.1 µM
- TGI (PC-3 prostate): 37.3 µM
- TGI (SK-OV-3 ovarian): 36 µM
- TGI (HOP-62 NSCLC): 36.9 µM
- TGI (SK-MEL-5 melanoma): 29.3 µM

SMILES: CSC(C1c2ccccc2N(C)c2[nH]c(=O)n(C)c(=O)c21)S(=O)(=O)c1ccc(C)cc1 (centres undefined)
- TGI (SNB-19 CNS): > 100 µM
- TGI (SF-268 CNS): > 100 µM
- TGI (CAKI-1 renal): > 100 µM
- TGI (SK-OV-3 ovarian): > 100 µM
- TGI (HOP-62 NSCLC): > 100 µM
- TGI (SK-MEL-5 melanoma): > 100 µM

SMILES: COc1ccc2c3/c(=C\c4ccc(N(C)C)cc4)c4ccccc4n3[n+](C)c2c1
- GI50 (RXF 393 renal): 0.0603 µM
- TGI (RXF 393 renal): 1.04 µM
- GI50 (SF-268 CNS): 0.437 µM
- TGI (SF-268 CNS): 3.03 µM
- GI50 (CAKI-1 renal): 0.723 µM
- TGI (CAKI-1 renal): 2.51 µM
- GI50 (MDA-MB-231 breast): 0.0352 µM
- TGI (MDA-MB-231 breast): 0.385 µM
- GI50 (PC-3 prostate): 0.124 µM
- TGI (PC-3 prostate): 1.5 µM
- GI50 (SK-OV-3 ovarian): 1.04 µM
- TGI (SK-OV-3 ovarian): 2.57 µM

SMILES: Cc1nn2c(c1C#N)NNc1c-2sc(=N)nnc1=O
- TGI (SNB-19 CNS): > 100 µM
- TGI (RXF 393 renal): > 100 µM
- TGI (SF-268 CNS): > 100 µM
- TGI (CAKI-1 renal): > 100 µM
- TGI (SK-OV-3 ovarian): > 100 µM
- TGI (HOP-62 NSCLC): > 100 µM
- TGI (SK-MEL-5 melanoma): > 100 µM

SMILES: CCNC(=S)NNC(=O)c1ccccc1Nc1ccccc1C(=O)NNC(=S)NCC
- TGI (MCF7 breast): > 100 µM
- TGI (SNB-19 CNS): > 100 µM
- TGI (MDA-MB-231 breast): > 100 µM
- TGI (PC-3 prostate): > 100 µM
- TGI (SK-OV-3 ovarian): > 100 µM
- TGI (HOP-62 NSCLC): > 100 µM
- TGI (SK-MEL-5 melanoma): > 100 µM

SMILES: Cc1nc2ccc(NC3OCC(O)C(O)C3O)cc2c(=O)n1-c1ccccc1 (centres undefined)
- TGI (MCF7 breast): > 100 µM
- TGI (SNB-19 CNS): > 100 µM
- TGI (RXF 393 renal): > 100 µM
- TGI (SF-268 CNS): > 100 µM
- TGI (CAKI-1 renal): > 100 µM
- TGI (MDA-MB-231 breast): > 100 µM
- TGI (PC-3 prostate): > 100 µM
- TGI (HOP-62 NSCLC): > 100 µM
- TGI (SK-MEL-5 melanoma): > 100 µM

SMILES: COc1ccc(C2=NNC(=O)c3ccccc3N2c2nc(-c3cccs3)nc3cc(OC)c(OC)cc23)cc1
- TGI (MCF7 breast): 9 µM
- TGI (SNB-19 CNS): > 100 µM
- TGI (SF-268 CNS): > 100 µM
- TGI (CAKI-1 renal): 44.7 µM
- TGI (MDA-MB-231 breast): 13.5 µM
- TGI (PC-3 prostate): > 100 µM
- TGI (SK-OV-3 ovarian): > 100 µM
- TGI (HOP-62 NSCLC): 17 µM
- TGI (SK-MEL-5 melanoma): 17.3 µM

SMILES: CSc1nc(NCc2ccccc2)c2cnn(COCCO)c2n1
- TGI (MCF7 breast): > 100 µM
- TGI (RXF 393 renal): > 100 µM
- TGI (SF-268 CNS): > 100 µM
- TGI (CAKI-1 renal): > 100 µM
- TGI (MDA-MB-231 breast): > 100 µM
- TGI (PC-3 prostate): > 100 µM
- TGI (SK-OV-3 ovarian): > 100 µM
- TGI (HOP-62 NSCLC): > 100 µM
- TGI (SK-MEL-5 melanoma): > 100 µM

SMILES: CC(NNC(=O)c1ccncc1)c1cccc(C(F)(F)F)c1 (centres undefined)
- TGI (MCF7 breast): > 100 µM
- TGI (RXF 393 renal): > 100 µM
- TGI (SF-268 CNS): > 100 µM
- TGI (CAKI-1 renal): > 100 µM
- TGI (MDA-MB-231 breast): > 100 µM
- TGI (PC-3 prostate): > 100 µM
- TGI (SK-OV-3 ovarian): > 100 µM
- TGI (HOP-62 NSCLC): > 100 µM
- TGI (SK-MEL-5 melanoma): > 100 µM

SMILES: Brc1ccc(-c2cc3c(cc2C2SCCS2)OCO3)cc1
- TGI (SNB-19 CNS): > 100 µM
- TGI (RXF 393 renal): 77.2 µM
- TGI (SF-268 CNS): > 100 µM
- TGI (SK-OV-3 ovarian): > 100 µM
- TGI (HOP-62 NSCLC): > 100 µM
- TGI (SK-MEL-5 melanoma): > 100 µM
